Measured values taken from paper PMC11280325, “Design, Synthesis, and Characterization of Novel Thiazolidine-2,4-Dione-Acridine Hybrids as Antitumor Agents” (Molecules, 2024).

Experiments:
[1] = test system: MCF-10A; assay: MTT assay, MCF-10A non-cancerous cells; assay type: cell-based, human; settings: non-cancerous epithelial breast cells, 48 h incubation
Method in brief: (§1)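 IC50 by nonlinear regression from MTT absorbance (540 nm, SDS-dissolved formazan), at least three repeats. Non-cancerous human lines, MCF-10A and BJ-5ta fibroblasts, were treated 48 h with 5, 10, 20 and 50 µmol/L compound, added 24 h after seeding.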

[2] = test system: Bj-5ta; assay: MTT assay, BJ-5ta non-cancerous fibroblasts; assay type: cell-based, human; settings: Homo sapiens, Fibroblast, 48 h, non-cancerous dermal fibroblasts, 48 h incubation
Method in brief: as §1

[3] = test system: A549; assay: MTT assay, A549; assay type: cell-based, human; settings: Homo sapiens, A549, 48 h, lung adenocarcinoma, 48 h incubation
Method in brief: (§2)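 Antiproliferative IC50 is derived by nonlinear regression from MTT colorimetry. Cells receive four compound concentrations (5 to 50 µmol/L) for 48 h under standard culture; formazan is read at 540 nm after SDS solubilisation.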

[4] = test system: Hep G2; assay: MTT assay, Hep G2; assay type: cell-based, human; settings: Homo sapiens, HepG2, 48 h, hepatocellular carcinoma, 48 h incubation
Method in brief: as §2

[5] = test system: A2780; assay: MTT assay, A2780; assay type: cell-based, human; settings: ovarian adenocarcinoma, 48 h incubation
Method in brief: as §2

[6] = test system: HeLa; assay: MTT assay, HeLa; assay type: cell-based, human; settings: cervical adenocarcinoma, 48 h incubation
Method in brief: as §2

[7] = test system: HCT116; assay: MTT assay, HCT116; assay type: cell-based, human; settings: colorectal adenocarcinoma, 48 h incubation
Method in brief: as §2

[8] = test system: PATU; assay: MTT assay, PATU 8902; assay type: cell-based, human; settings: Homo sapiens, PaTu 8902, 48 h, pancreas adenocarcinoma, 48 h incubation
Method in brief: as §2

[9] = test system: A2058; assay: MTT assay, A2058; assay type: cell-based; settings: Homo sapiens, A2058, 48 h, human melanoma, 48 h incubation
Method in brief: as §2

Row | SMILES | IC50 ([1]; Homo sapiens, MCF-10A, 48 h) | IC50 [2] | IC50 [3] | IC50 [4] | IC50 ([5]; Homo sapiens, A2780, 48 h) | IC50 ([6]; Homo sapiens, HeLa, 48 h) | IC50 ([7]; Homo sapiens, HCT-116, 48 h) | IC50 [8] | IC50 [9] | melting point | IC50 [7] | IC50 [1] | IC50 [5] | IC50 [6]
1 | O=C(COc1ccc(/C=C2\SC(=O)N(Cc3cccc4cc5ccccc5nc34)C2=O)cc1)Nc1ccc([N+](=O)[O-])cc1 [Compound 8d, 2-(4-{[(5Z)-3-[(Acridin-4-yl)methyl]-2,4-dioxo-1,3-thiazolidin-5-ylidene]methyl}phenoxy)-N-(4-nitrophenyl)acetamide] | > 50 µM | > 50 µM | > 50 µM | > 50 µM | > 50 µM | 44.9 ± 4.2 µM | 47.6 ± 3.8 µM | > 50 µM | > 50 µM | > 300 °C (dec.) | – | – | – | –
2 | O=C(COc1ccc(/C=C2\SC(=O)N(Cc3cccc4cc5ccccc5nc34)C2=O)cc1)Nc1ccccc1C(F)(F)F [Compound 8e, 2-(4-{[(5Z)-3-[(Acridin-4-yl)methyl]-2,4-dioxo-1,3-thiazolidin-5-ylidene]methyl}phenoxy)-N-[2-(trifluoromethyl)phenyl]acetamide] | > 50 µM | > 50 µM | > 50 µM | > 50 µM | > 50 µM | 43.3 ± 5.2 µM | – | > 50 µM | > 50 µM | 205 to 206 °C (dec.) | 24.3 ± 3.8 µM | – | – | –
3 | O=C(COc1ccc(/C=C2\SC(=O)N(Cc3cccc4cc5ccccc5nc34)C2=O)cc1)Nc1cccc(C(F)(F)F)c1 [Compound 8f, 2-(4-{[(5Z)-3-[(Acridin-4-yl)methyl]-2,4-dioxo-1,3-thiazolidin-5-ylidene]methyl}phenoxy)-N-[3-(trifluoromethyl)phenyl]acetamide] | > 50 µM | > 50 µM | > 50 µM | > 50 µM | > 50 µM | 27.7 ± 4.6 µM | 25.1 ± 7.8 µM | > 50 µM | > 50 µM | 219 to 220 °C (dec.) | – | – | – | –
4 | COc1cc(/C=C2\SC(=O)N(Cc3c4ccccc4nc4ccccc34)C2=O)ccc1OCC(=O)Nc1ccccc1 [Compound 12a, 2-(4-{[(5Z)-3-[(Acridin-9-yl)methyl]-2,4-dioxo-1,3-thiazolidin-5-ylidene]methyl}-2-methoxyphenoxy)-N-phenylacetamide] | – | > 50 µM | > 50 µM | > 50 µM | – | 18.7 ± 0.45 µM | – | > 50 µM | > 50 µM | 260 to 262 °C | > 50 µM | > 50 µM | > 50 µM | –
5 | COc1cc(NC(=O)COc2ccc(/C=C3\SC(=O)N(Cc4c5ccccc5nc5ccccc45)C3=O)cc2OC)cc(OC)c1 [Compound 12b, 2-(4-{[(5Z)-3-[(Acridin-9-yl)methyl]-2,4-dioxo-1,3-thiazolidin-5-ylidene]methyl}-2-methoxyphenoxy)-N-(3,5-dimethoxyphenyl)acetamide] | 15.6 ± 2.6 µM | > 50 µM | 34.5 ± 5.4 µM | > 50 µM | – | 7.3 ± 3.4 µM | – | > 50 µM | > 50 µM | 264 to 265 °C | 10.2 ± 2.1 µM | – | > 50 µM | –
6 | COc1cc(/C=C2\SC(=O)N(Cc3c4ccccc4nc4ccccc34)C2=O)ccc1OCC(=O)Nc1cc(OC)c(OC)c(OC)c1 [Compound 12c, 2-(4-{[(5Z)-3-[(Acridin-9-yl)methyl]-2,4-dioxo-1,3-thiazolidin-5-ylidene]methyl}-2-methoxyphenoxy)-N-(3,4,5-trimethoxyphenyl)acetamide] | > 50 µM | > 50 µM | > 50 µM | > 50 µM | > 50 µM | 19.9 ± 2.05 µM | – | > 50 µM | > 50 µM | 268 to 269 °C | 15.1 ± 2 µM | – | – | –
7 | COc1cc(/C=C2\SC(=O)N(Cc3c4ccccc4nc4ccccc34)C2=O)ccc1OCC(=O)Nc1ccc([N+](=O)[O-])cc1 [Compound 12d, 2-(4-{[(5Z)-3-[(Acridin-9-yl)methyl]-2,4-dioxo-1,3-thiazolidin-5-ylidene]methyl}-2-methoxyphenoxy)-N-(4-nitrophenyl)acetamide] | > 50 µM | > 50 µM | 31.2 ± 1.1 µM | > 50 µM | > 50 µM | – | 14.6 ± 1.7 µM | > 50 µM | > 50 µM | 288 to 290 °C | – | – | – | 9.4 ± 0.3 µM
8 | COc1cc(/C=C2\SC(=O)N(Cc3c4ccccc4nc4ccccc34)C2=O)ccc1OCC(=O)Nc1ccccc1C(F)(F)F [Compound 12e, 2-(4-{[(5Z)-3-[(Acridin-9-yl)methyl]-2,4-dioxo-1,3-thiazolidin-5-ylidene]methyl}-2-methoxyphenoxy)-N-[2-(trifluoromethyl)phenyl]acetamide] | > 50 µM | > 50 µM | 31.1 ± 4.2 µM | > 50 µM | > 50 µM | – | – | > 50 µM | > 50 µM | 255 to 256 °C | 14.3 ± 1.8 µM | – | – | 28.2 ± 3.7 µM
9 | COc1cc(/C=C2\SC(=O)N(Cc3c4ccccc4nc4ccccc34)C2=O)ccc1OCC(=O)Nc1cccc(C(F)(F)F)c1 [Compound 12f, 2-(4-{[(5Z)-3-[(Acridin-9-yl)methyl]-2,4-dioxo-1,3-thiazolidin-5-ylidene]methyl}-2-methoxyphenoxy)-N-[3-(trifluoromethyl)phenyl]acetamide] | > 50 µM | > 50 µM | > 50 µM | > 50 µM | > 50 µM | 11.5 ± 3.3 µM | – | > 50 µM | > 50 µM | 269 to 270 °C | > 50 µM | – | – | –
10 | COc1cc(/C=C2\SC(=O)N(Cc3c4ccccc4nc4ccccc34)C2=O)ccc1OCC(=O)Nc1cc(C(F)(F)F)cc(C(F)(F)F)c1 [Compound 12g, 2-(4-{[(5Z)-3-[(Acridin-9-yl)methyl]-2,4-dioxo-1,3-thiazolidin-5-ylidene]methyl}-2-methoxyphenoxy)-N-[3,5-bis(trifluoromethyl)phenyl]acetamide] | > 50 µM | > 50 µM | > 50 µM | > 50 µM | > 50 µM | 20.7 ± 5.3 µM | – | > 50 µM | > 50 µM | 287 to 288 °C | 6.7 ± 2 µM | – | – | –
